Source: patent US8722658B2, “Azetidinyl diamides as monoacylglycerol lipase inhibitors” (Janssen Pharmaceutica, NV, priority 2009, dated 2014)

Tests used:
[1] = test system: rat, CFA-induced thermal hypersensitivity; assay: CFA-Induced Paw Radiant Heat Hypersensitivity; assay type: in vivo; details: 30 mg/kg p.o., HPβCD, group mean values, last time point 180 or 300 min
Experimental: Each rat was placed in a test chamber on a warm glass surface and allowed to acclimate for approximately 10 min. A radiant thermal stimulus (beam of light) was then focused through the glass onto the plantar surface of each hind paw in turn. The thermal stimulus was automatically shut off by a photoelectric relay when the paw was moved or when the cut-off time was reached (20 sec for radiant heat at ˜5 amps). An initial (baseline) response latency to the thermal stimulus was recorded for each animal prior to the injection of complete Freund's adjuvant (CFA). 24 h following intraplantar CFA injection, the response latency of the animal to the thermal stimulus was then re-evaluated and compared to the animal's baseline response time. […] Post-compound treatment withdrawal latencies were assessed at fixed time intervals, typically 30, 60, 120, 180, and 300 min.
The percent reversal (% R) of hypersensitivity was calculated in one of two different ways: 1) using group mean values or 2) using individual animal values. […]
For all compounds, the % R of hypersensitivity was calculated using the mean value for groups of animals at each time point according to the following formula: % reversal=[(group treatment response−group CFA response)/(group baseline response−group CFA response)]×100 Results are given for the maximum % reversal observed for each compound at any time point tested. […]

[2] = target: T1, mutant MGL (Homo sapiens, UniProt Q99685, L169S/L176S); assay: MGL ThermoFluor Assay-Mutant; details: read-out: MGL mutant ThermoFluor qKd (using qNMR conc.), compound concentration measured by qNMR
T1 sequence (Q99685 1-303 L169S/L176S): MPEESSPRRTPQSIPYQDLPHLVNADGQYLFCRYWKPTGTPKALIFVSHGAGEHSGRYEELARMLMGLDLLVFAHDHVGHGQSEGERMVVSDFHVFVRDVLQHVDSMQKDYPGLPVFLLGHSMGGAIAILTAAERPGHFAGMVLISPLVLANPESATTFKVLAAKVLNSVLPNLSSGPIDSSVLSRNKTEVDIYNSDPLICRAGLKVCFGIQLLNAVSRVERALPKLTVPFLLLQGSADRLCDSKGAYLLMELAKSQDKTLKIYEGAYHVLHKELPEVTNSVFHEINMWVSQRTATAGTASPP
Experimental: The ThermoFluor (TF) assay is a 384-well plate-based binding assay that measures thermal stability of proteins^1,2. […] TF dye used in all experiments was 1,8-ANS (Invitrogen: A-47). Final TF assay conditions used for MGL studies were 0.07 mg/ml of mutant MGL, 100 μM ANS, 200 mM NaCl, 0.001% Tween-20 in 50 mM PIPES (pH=7.0).
Screening compound plates contained 100% DMSO compound solutions at a single concentration. […] Columns 12 and 24 were used as DMSO reference and contained no compound. […] Following compound dispension, protein and dye solutions were added to achieve the final assay volume of 3 μL.
Bar-coded assay plates were robotically loaded onto a thermostatically controlled PCR-type thermal block and then heated from 40 to 90° C. degrees at a ramp-rate of 1° C./min for all experiments. Fluorescence was measured by continuous illumination with UV light (Hamamatsu LC6), supplied via fiber optics and filtered through a band-pass filter (380-400 nm; >6 OD cutoff). Fluorescence emission of the entire 384-well plate was detected by measuring light intensity using a CCD camera (Sensys, Roper Scientific) filtered to detect 500±25 nm, resulting in simultaneous and independent readings of all 384 wells. […]

| SMILES | Method 1: peak % reversal [1] [%] | Kd [2] [nM] |
| --- | --- | --- |
| O=C(c1ccc(-c2cccc(C(F)(F)F)c2)c(Cl)c1)N1CC(N2CCN(C(=O)c3cscn3)CC2)C1 [Cpd 1102] | 38 |  |
| Cc1nc(C(=O)N2CCN(C3CN(C(=O)c4ccc(-c5cccc(C(F)(F)F)c5)cc4)C3)CC2)cs1 [Cpd 1217, 1-[(2-Methyl-l,3-thiazol-4-yl)carbonyl]-4-(1-{[3′-(trifluoromethyl)biphenyl-4-yl]carbonyl}azetidin-3-yl)piperazine] |  | 104 |
